Source: paper PMC7688068 (Journal of medicinal chemistry, 2020)

How the values were obtained:
Raw264.7 cells = assay type: in vitro ADME, mouse; conditions: for cellular permeability compared to positive control compound 9 of ref 55: 20 μM input, 2 h, 37 °C; for cellular uptake (cellular bioavailability): LC-MS-based method
[1] = tested on: mouse embryonic fibroblasts (MEF cells); conditions: 72 h, up to 25 μM
mPTPB [2] = target: T1, mPTPB (Mycobacterium tuberculosis, UniProt I6WXK4); assay type: biochemical
[3] = tested on: Raw 264.7 vector cells (pcN-HA); assay: signaling in vector control cells, western blot, IFN-γ stimulated; assay type: cell-based, mouse; conditions: IFN-γ stimulation
mPTPB [4] = target: T1, mPTPB; assay type: biochemical; remark: listed apart in the source

T1 sequence (I6WXK4 whole entry, looked up): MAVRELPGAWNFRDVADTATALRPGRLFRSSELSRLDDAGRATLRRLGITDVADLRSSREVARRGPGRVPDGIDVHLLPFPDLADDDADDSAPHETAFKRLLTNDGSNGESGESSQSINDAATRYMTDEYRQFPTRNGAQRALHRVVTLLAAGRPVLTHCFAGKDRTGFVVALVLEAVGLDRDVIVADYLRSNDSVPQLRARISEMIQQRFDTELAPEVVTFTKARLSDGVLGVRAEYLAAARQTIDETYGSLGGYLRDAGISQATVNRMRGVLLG

SMILES	cellular permeability compared to positive control compound 9 of ref 55 (Raw264.7 cells)	cellular uptake (cellular bioavailability) (Raw264.7 cells)	fold less potency compared to corresponding alkyne analogue (mPTPB [4]) [fold]	also measured
O=C(O)C(=O)Nc1ccc(C#Cc2ccc(C(F)(F)F)cc2)cc1 [Compound 4k, 2-Oxo-2-((4-((4-(trifluoromethyl)phenyl)ethynyl)phenyl)amino)acetic Acid]	better cellular permeability	can easily be taken up	–	–
CC(C)(C)OC(=O)Nc1ccc(C#Cc2ccc(NC(=O)C(=O)O)cc2)cc1 [Compound 4s, 2-((4-((4-((tert-Butoxycarbonyl)amino)phenyl)ethynyl)phenyl)amino)-2-oxoacetic Acid]	better cellular permeability	–	–	cytotoxicity (cell viability, MTT) [1]: did not exhibit any significant cytotoxicity
O=C(O)C(=O)Nc1ccc(C#Cc2ccc(C(F)(F)F)cc2Cl)cc1 [Compound 4t, 2-((4-((2-Chloro-4-(trifluoromethyl)phenyl)ethynyl)phenyl)amino)-2-oxoacetic Acid]	better cellular permeability	can easily be taken up	–	mode of mPTPB inhibition (mPTPB [2]): reversible and competitive inhibitor; cytotoxicity (cell viability, MTT) [1]: did not exhibit any significant cytotoxicity; pAKT, pERK1/2 and pp38 levels compared to vehicle-treated cells [3]: no significant change
O=C(O)C(=O)Nc1ccc(C#Cc2ccc(C(F)(F)F)cc2Br)cc1 [Compound 4u, 2-((4-((2-Bromo-4-(trifluoromethyl)phenyl)ethynyl)phenyl)amino)-2-oxoacetic Acid]	better cellular permeability	can easily be taken up	–	–
O=C(O)C(=O)Nc1ccc(C#Cc2ccc(C(F)(F)F)cc2F)cc1 [Compound 4v, 2-((4-((2-Fluoro-4-(trifluoromethyl)phenyl)ethynyl)phenyl)amino)-2-oxoacetic Acid]	–	can easily be taken up	–	–
O=C(O)C(=O)Nc1ccc(/C=C\c2ccccc2)cc1 [Compound 9, (Z)-2-Oxo-2-((4-styrylphenyl)amino)acetic Acid]	–	–	3	–
O=C(O)C(=O)Nc1ccc(/C=C\c2ccc(C(F)(F)F)cc2)cc1 [Compound 10, (Z)-2-Oxo-2-((4-(4-(trifluoromethyl)styryl)phenyl)amino)acetic Acid]	–	–	45	–
O=C(O)C(=O)Nc1ccc(CCc2ccccc2)cc1 [Compound 11, 2-Oxo-2-((4-phenethylphenyl)amino)acetic Acid]	–	–	5	–
O=C(O)C(=O)Nc1ccc(CCc2ccc(C(F)(F)F)cc2)cc1 [Compound 12, 2-Oxo-2-((4-(4-(trifluoromethyl)phenethyl)phenyl)amino)acetic Acid]	–	–	13	–
